From patent publication US20030143645A1, “Quinone reductase 2 and aldehyde dehydrogenase as therapeutic targets” (priority 2001, published 2003)

How the values were obtained:
[1] = biological target: T1, ALDH1 (Homo sapiens, UniProt P00352); assay: hALDH1 HPLC-based activity assay (Example 1); assay type: biochemical
T1 construct: Purification of native ALDH1, QR2 and QR1; RBC extract was prepared as described above and applied to PQ-Sepharose; tissue Valley Biomedical (blood); host or cells: human red blood cells
T1 sequence (P00352 1-501): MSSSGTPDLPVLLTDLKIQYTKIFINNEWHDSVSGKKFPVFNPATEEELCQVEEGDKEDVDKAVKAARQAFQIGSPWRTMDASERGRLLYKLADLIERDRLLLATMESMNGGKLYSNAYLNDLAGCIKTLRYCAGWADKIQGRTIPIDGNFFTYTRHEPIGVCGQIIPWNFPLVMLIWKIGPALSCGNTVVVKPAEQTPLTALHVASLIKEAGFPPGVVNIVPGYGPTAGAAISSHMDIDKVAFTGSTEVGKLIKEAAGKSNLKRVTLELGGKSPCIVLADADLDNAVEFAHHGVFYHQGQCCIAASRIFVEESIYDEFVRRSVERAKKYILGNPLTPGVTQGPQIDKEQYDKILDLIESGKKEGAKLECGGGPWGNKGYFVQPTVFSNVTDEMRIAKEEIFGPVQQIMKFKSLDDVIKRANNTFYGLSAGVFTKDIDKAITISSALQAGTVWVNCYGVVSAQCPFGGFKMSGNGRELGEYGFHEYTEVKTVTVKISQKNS
Procedure: ATP-affinity array chromatography. In whole mouse experiments, the animal (except for its tail, feet, skin and intestines) was frozen in liquid N2 and blended in buffer A containing 50 mM Hepes, pH 7.5, 50 mM NaCl, 10 mM MgCl2, 0.1% NONIDET- P40, 1 mM dithiothreitol, 1 μg/ml leupeptin, 100 μg/ml pefabloc and 10 μg/ml aprotinin. Mouse lysate was clarified by centrifugation for 1 hr at 100,000×g. For infected and non-infected RBC's˜1.5×10^9 cells were mixed with an equal volume of 2×buffer A, rocked for 30 min at 4° C., and clarified by centrifugation for 1 hr at 100,000×g. Supernatants were dialyzed overnight against 50 mM Hepes, pH 7.5, 50 mM NaCl, 10 mM MgCl2 and 1 mM dithiothreitol. […] Proteins were resolved by 12% SDS-PAGE and visualized by staining either with Coomassie brilliant Blue R-250 or silver nitrate. Alternatively, proteins were transferred to membrane GeneMate (Kaysville, Utah) in transfer buffer (25 mM Tris, 200 mM glycine, 20% methanol, and 0.01% SDS) for mixed peptide sequencing (Damer et al, J. Biol. Chem. 273:24396 (1998)). hALDH 1 and hQR2 purification and activity assays. Fresh human red blood cells (RBC) were obtained from Valley Biomedical, washed twice with PBS, and lysed in buffer B (0.1% Triton X, 50 mM Tris pH 7.5, 125 mM NaCl, 1 μg/mL aprotonin, 1 μg/mL pepstatin and 10 μg/mL PEFABLOC). […]
Values for hALDH1 were determined by HPLC assay. […]

[2] = biological target: T2, QR2 (Homo sapiens, UniProt P16083); assay: QR2 activity assay with recombinant QR2 (Example 2); assay type: biochemical; parameters: GST (N, cleaved yes); made in house; E. coli only by inference; settings: recombinant QR2; 50 μM NMeH, 5-30 μM menadione; read-out: QR2 K1 (μM) ± SEM
T2 sequence (P16083 1-231): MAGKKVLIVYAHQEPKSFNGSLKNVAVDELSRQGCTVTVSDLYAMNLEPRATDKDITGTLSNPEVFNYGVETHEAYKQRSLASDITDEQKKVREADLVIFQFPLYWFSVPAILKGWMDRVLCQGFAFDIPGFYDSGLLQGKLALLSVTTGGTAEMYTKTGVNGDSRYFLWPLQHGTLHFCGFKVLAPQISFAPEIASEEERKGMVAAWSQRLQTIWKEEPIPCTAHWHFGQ
Procedure: Cloning of human QR2. Human QR2 was PCR amplified from human liver cDNA (Clontech) with the following primers: 5′[…]-3′ and 5′-[…]-3′ and cloned into the pGEX-4T-2 GST expression vector (Pharmacia). GST-tagged QR2 was purified and the GST tag removed according to the manufacturers instructions.
ALDH1, QR2 and QR1 activity assays. […] Reaction products were separated with a gradient of acetonitrile in 10 mM triethylamine acetic acid. […] QR1 IC50 values were calculated using GraphPad Prism.

CCN(CC)CCCC(C)Nc1ccnc2cc(Cl)ccc12 (stereo not drawn) [CQ, chloroquine]
ALDH activity ([1]; 0.5 mM CQ, ALDH alone 48.42 ± 9.3 pmol): 26.62 ± 6.1 pmol | inhibition of hALDH1 activity ([1]; in the presence of physiological [NADH]): relatively weak inhibitor | Ki [2]: 0.61 ± 0.1 µM
